Tests used:
EZH2 = EZH2 (Homo sapiens, UniProt Q15910); experiment: AlphaLISA enzyme activity inhibition, EZH2; type: biochemical; settings: for inhibition at 0.005 µM: 5nM test substance; for inhibition at 0.01 µM: 10nM test substance
Method: (§1) In order to confirm the EZH1 and/or EZH2 activity inhibitory effect of the 1,3-benzodioxole derivative compounds represented by chemical formula I of the present invention, the activity was measured using an AlphaLISA test method. The test substance dissolved in dimethylsulfoxide (DMSO) was diluted in a test solution (20 mM Tris pH 8.0, 0.1% BSA, 0.01% Triton X-100, 0.5 mM DTT) according to a final treatment concentration (5 nM or 10 nM) and mixed with EZH1 and EZH2, respectively, and then histone H3 peptide and S-adenosylmethionine (SAM) were added to initiate an enzyme reaction. An acceptor bead was added thereto after reaction for two hours and subjected to an additional reaction for one hour, after which a donor bead was added thereto. After an additional reaction for 30 minutes, the reaction was completed. An activity was measured using the Magellan program on a Spark10M instrument. DMSO was used as a control group, an inhibition rate of enzyme activity was calculated using a following equation, and the results thereof are shown in Table 1 below. [formula]

G401 cells = experiment: Cancer cell proliferation inhibition (Cell Counting Kit-8), rhabdoid tumor cell line; type: cell-based; settings: 1000 nM, cultured seven to 11 days; for inhibition at 1 µM: Homo sapiens, G-401, 264 h, read-out: % inhibition rate G401; for % inhibition rate G401: 1 µM
Summary of the method: (§2)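 Single 1000 nM dose of test substance, applied to cells seeded at 100–1,000 per well in 10% FBS medium, then culture for seven to 11 days. CCK-8 read-out; inhibition rate expressed as percent relative to untreated control.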

MKN-45 cells = experiment: Cancer cell proliferation inhibition (Cell Counting Kit-8), gastric cancer cell line; type: cell-based; settings: Homo sapiens, MKN-45, 264 h, 1000 nM, cultured seven to 11 days; read-out: % inhibition rate MKN -45
Summary of the method: as §2

NCI-H1299 cells = experiment: Cancer cell proliferation inhibition (Cell Counting Kit-8), lung cancer cell line; type: cell-based; settings: Homo sapiens, NCI-H1299, 264 h, 1000 nM, cultured seven to 11 days; read-out: % inhibition rate NCI-H129 9
Summary of the method: (§3)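 Percent inhibition, calculated as {1−(test group/control group)} × 100, comes from Cell Counting Kit-8 measurement. Treatment was 1000 nM test substance for seven to 11 days on cells plated at 100 to 1,000 per well in serum-containing medium.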

EZH1 = EZH1 (Homo sapiens, UniProt Q92800); experiment: AlphaLISA enzyme activity inhibition, EZH1; type: biochemical; settings: for inhibition at 0.005 µM: 5nM test substance; for inhibition at 0.01 µM: 10nM test substance
Method: as §1

Lovo cells = experiment: Cancer cell proliferation inhibition (Cell Counting Kit-8), colorectal cancer cell line; type: cell-based; settings: 1000 nM, cultured seven to 11 days; for inhibition at 1 µM: Homo sapiens, LoVo, 264 h, read-out: % inhibition rate LoVo; for % inhibition rate LoVo: 1 µM
Summary of the method: as §3

SW-13 cells = experiment: Cancer cell proliferation inhibition (Cell Counting Kit-8), adrenal cancer cell line; type: cell-based; settings: Homo sapiens, SW13, 264 h, 1000 nM, cultured seven to 11 days; read-out: % inhibition rate SW-13
Summary of the method: as §3

MIA-PaCa-2 cells = experiment: Cancer cell proliferation inhibition (Cell Counting Kit-8), pancreatic cancer cell line; type: cell-based; settings: Homo sapiens, MIA PaCa-2, 264 h, 1000 nM, cultured seven to 11 days; read-out: % inhibition rate MIA-Paca2
Summary of the method: as §3

Chain of EZH2 (Q15910 whole entry, species assumed): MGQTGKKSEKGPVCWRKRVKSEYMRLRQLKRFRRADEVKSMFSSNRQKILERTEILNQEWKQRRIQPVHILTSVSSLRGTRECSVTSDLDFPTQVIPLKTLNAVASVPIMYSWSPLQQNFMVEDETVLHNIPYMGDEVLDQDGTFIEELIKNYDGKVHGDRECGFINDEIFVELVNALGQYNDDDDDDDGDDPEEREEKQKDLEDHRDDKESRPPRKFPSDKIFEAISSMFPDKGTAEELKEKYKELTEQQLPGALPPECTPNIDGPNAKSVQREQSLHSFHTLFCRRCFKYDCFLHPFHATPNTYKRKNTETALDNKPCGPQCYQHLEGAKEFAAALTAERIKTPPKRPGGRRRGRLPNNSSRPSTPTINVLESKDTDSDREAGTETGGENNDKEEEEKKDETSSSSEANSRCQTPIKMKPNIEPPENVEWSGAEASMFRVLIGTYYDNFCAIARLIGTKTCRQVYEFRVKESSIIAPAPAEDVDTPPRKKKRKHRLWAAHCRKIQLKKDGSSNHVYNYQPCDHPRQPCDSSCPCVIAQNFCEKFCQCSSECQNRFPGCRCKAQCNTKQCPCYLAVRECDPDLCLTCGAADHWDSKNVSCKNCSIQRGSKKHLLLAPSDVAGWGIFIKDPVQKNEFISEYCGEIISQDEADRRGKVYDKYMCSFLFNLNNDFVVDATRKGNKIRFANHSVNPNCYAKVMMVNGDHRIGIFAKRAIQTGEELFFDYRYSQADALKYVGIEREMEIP
Chain of EZH2 (O75530 whole entry partner, species assumed): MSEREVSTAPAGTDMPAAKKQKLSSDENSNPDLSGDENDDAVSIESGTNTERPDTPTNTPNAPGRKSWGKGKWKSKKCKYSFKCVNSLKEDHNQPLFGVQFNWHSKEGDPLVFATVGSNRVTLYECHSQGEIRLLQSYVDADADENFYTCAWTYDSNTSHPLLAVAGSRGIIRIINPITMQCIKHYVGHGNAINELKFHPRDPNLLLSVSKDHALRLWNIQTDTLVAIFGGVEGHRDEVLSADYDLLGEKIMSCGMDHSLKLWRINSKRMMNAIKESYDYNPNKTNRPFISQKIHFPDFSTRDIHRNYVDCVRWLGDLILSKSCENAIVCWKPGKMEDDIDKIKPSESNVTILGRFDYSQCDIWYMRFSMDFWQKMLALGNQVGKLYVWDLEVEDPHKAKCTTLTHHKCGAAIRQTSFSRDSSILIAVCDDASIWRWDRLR
Chain of EZH2 (Q15022 whole entry partner, species assumed): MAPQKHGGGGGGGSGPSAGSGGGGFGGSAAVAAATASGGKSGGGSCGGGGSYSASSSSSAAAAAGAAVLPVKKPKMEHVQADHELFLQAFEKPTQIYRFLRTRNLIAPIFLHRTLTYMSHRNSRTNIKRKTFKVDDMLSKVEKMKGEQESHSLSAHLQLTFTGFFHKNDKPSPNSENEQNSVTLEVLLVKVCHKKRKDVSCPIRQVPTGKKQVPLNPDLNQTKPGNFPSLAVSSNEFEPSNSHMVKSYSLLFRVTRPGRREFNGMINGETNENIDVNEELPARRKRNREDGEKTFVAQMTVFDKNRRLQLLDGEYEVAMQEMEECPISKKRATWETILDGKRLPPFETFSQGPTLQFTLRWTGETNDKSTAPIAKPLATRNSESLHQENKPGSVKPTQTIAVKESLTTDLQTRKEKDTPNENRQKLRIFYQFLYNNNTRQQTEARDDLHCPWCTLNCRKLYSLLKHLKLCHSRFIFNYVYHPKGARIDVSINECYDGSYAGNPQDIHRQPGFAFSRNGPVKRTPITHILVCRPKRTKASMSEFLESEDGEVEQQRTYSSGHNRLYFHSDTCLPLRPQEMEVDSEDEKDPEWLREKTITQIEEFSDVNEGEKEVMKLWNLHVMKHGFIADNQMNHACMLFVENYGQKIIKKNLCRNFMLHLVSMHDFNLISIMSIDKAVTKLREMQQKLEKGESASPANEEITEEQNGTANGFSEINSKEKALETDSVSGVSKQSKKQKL
Chain of EZH1 (Q92800 whole entry, species assumed): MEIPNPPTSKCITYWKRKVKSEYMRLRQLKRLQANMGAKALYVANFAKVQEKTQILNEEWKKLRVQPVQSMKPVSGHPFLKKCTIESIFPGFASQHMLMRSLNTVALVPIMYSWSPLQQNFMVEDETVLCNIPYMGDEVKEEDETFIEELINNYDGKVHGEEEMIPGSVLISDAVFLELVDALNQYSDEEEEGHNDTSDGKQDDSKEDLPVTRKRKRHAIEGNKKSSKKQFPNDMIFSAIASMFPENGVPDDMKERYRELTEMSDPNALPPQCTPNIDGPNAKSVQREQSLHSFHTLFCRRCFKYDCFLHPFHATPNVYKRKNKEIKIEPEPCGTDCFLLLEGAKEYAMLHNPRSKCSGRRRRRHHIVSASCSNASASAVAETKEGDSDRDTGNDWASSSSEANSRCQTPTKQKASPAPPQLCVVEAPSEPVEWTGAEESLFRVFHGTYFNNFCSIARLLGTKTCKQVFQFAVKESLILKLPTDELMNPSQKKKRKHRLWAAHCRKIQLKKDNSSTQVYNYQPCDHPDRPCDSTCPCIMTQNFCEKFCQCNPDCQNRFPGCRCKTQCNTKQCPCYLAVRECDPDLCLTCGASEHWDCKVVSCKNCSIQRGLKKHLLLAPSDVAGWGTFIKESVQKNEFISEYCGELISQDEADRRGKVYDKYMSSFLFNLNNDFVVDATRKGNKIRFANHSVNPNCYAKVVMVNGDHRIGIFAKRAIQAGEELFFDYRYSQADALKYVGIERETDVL
Chain of EZH1 (O75530 whole entry partner, species assumed): as the sequence (O75530 whole entry partner, species assumed) above
Chain of EZH1 (Q15022 whole entry partner, species assumed): as the sequence (Q15022 whole entry partner, species assumed) above

| inhibition at 0.005 µM (EZH2) | inhibition at 0.005 µM (EZH1) | inhibition at 0.01 µM (EZH2) | inhibition at 0.01 µM (EZH1) | SMILES | inhibition at 1 µM (G401 cells) | inhibition at 1 µM (MKN-45 cells) | inhibition at 1 µM (NCI-H1299 cells) | inhibition at 1 µM (Lovo cells) | inhibition at 1 µM (SW-13 cells) | inhibition at 1 µM (MIA-PaCa-2 cells) | % inhibition rate G401 (G401 cells) | % inhibition rate LoVo (Lovo cells) |
| --- | --- | --- | --- | --- | --- | --- | --- | --- | --- | --- | --- | --- |
| 94.5% | 68.1% | 99.6% | 86.7% | CSc1cc(C)[nH]c(=O)c1CNC(=O)c1cc(-c2ccc(N3C[C@@H](C)O[C@@H](C)C3)nc2)c2c(c1C)OC(C)(C1CCN(CC(F)F)CC1)O2 (single isomer, unassigned) [Compound 47] |  | 30 to 70% | 30 to 70% | ≥ 70% | 30 to 70% | ≤ 30% | +++ (+++: ≥70%) |  |
| 99.2% | 78.8% | 99.5% | 92.4% | CCN1CCC(C2(C)Oc3c(-c4ccc(N5C[C@@H](C)O[C@@H](C)C5)nc4)cc(C(=O)NCc4c(SC)cc(C)[nH]c4=O)c(C)c3O2)CC1 (single isomer, unassigned) [Compound 49] | 30 to 70% | ≤ 30% | 30 to 70% |  | 30 to 70% | ≤ 30% |  | +++ (+++: ≥70%) |
| 93.6% | 66.9% | 99.4% | 81.8% | CSc1cc(C)[nH]c(=O)c1CNC(=O)c1cc(-c2ccc(N3CCOCC3)nc2)c2c(c1C)OC(C)(C1CCN(CC(F)(F)F)CC1)O2 (single isomer, unassigned) [Compound 62, 2,4-dimethyl-N-((6-methyl-4-(methylthio)-2-oxo-1,2-dihydropyridin-3-yl)methyl)-7-(6-morpholinopyridin-3-yl)-2-(1-(2,2,2-trifluoro)piperidin-4-yl)benzo[d][1,3]dioxole-5-carboxamide] |  | 30 to 70% | 30 to 70% |  | 30 to 70% | ≤ 30% | +++ (+++: ≥70%) | +++ (+++: ≥70%) |
| 99.2% | 82.5% | 99.6% | 90.5% | CSc1cc(C)[nH]c(=O)c1CNC(=O)c1cc(-c2ccc(N3CCOCC3)nc2)c2c(c1C)OC(C)(C1CCN(CC(F)F)CC1)O2 (single isomer, unassigned) [Compound 64, 2-(1-(2,2-difluoroethyl)piperidin-4-yl)-2,4-dimethyl-N-((6-methyl-4-(methylthio)-2-oxo-1,2-dihydropyridin-3-yl)methyl)-7-(6-morpholinopyridin-3-yl)benzo[d][1,3]dioxole-5-carboxamide] |  | 30 to 70% | ≤ 30% |  | 30 to 70% | ≤ 30% | +++ (+++: ≥70%) | +++ (+++: ≥70%) |
| 99.3% | 81.3% | 99.6% | 90.9% | CCN1CCC(C2(C)Oc3c(-c4ccc(N5CCOCC5)nc4)cc(C(=O)NCc4c(SC)cc(C)[nH]c4=O)c(C)c3O2)CC1 (single isomer, unassigned) [Compound 66, 2-(1-ethylpiperidin-4-yl)-2,4-dimethyl-N-((6-methyl-4-(methylthio)-2-oxo-1,2-dihydropyridin-3-yl)methyl)-7-(6-morpholinopyridin-3-yl)benzo[d][1,3]dioxole-5-carboxamide] |  | 30 to 70% | ≤ 30% | 30 to 70% | ≤ 30% | ≤ 30% | +++ (+++: ≥70%) |  |

More lines, now with the values behind:

| SMILES | inhibition at 0.005 µM (EZH2) | inhibition at 0.005 µM (EZH1) | inhibition at 0.01 µM (EZH2) | inhibition at 0.01 µM (EZH1) | inhibition at 1 µM (G401 cells) | inhibition at 1 µM (MKN-45 cells) | inhibition at 1 µM (NCI-H1299 cells) | inhibition at 1 µM (Lovo cells) | inhibition at 1 µM (SW-13 cells) | inhibition at 1 µM (MIA-PaCa-2 cells) | % inhibition rate G401 (G401 cells) | % inhibition rate LoVo (Lovo cells) |
| --- | --- | --- | --- | --- | --- | --- | --- | --- | --- | --- | --- | --- |
| COCCN(C)[C@H]1CC[C@H](C2(C)Oc3c(-c4ccc(OC)nc4)cc(C(=O)NCc4c(SC)cc(C)[nH]c4=O)c(C)c3O2)CC1 (relative stereo) [Compound 28, 2-(trans-4-((2-methoxyethyl)(methyl)amino)cyclohexyl)-7-(6-methoxypyridin-3-yl)-2,4-dimethyl-N-((6-methyl-4-(methylthio)-2-oxo-1,2-dihydropyridin-3-yl)methyl)benzo[d][1,3]dioxole-5-carboxamide] | 99.4% | 77.3% |  |  | 30 to 70% | ≤ 30% | ≤ 30% | 30 to 70% | 30 to 70% | ≤ 30% |  |  |
| CSc1cc(C)[nH]c(=O)c1CNC(=O)c1cc(-c2ccc(N3C[C@@H](C)O[C@@H](C)C3)nc2)c2c(c1C)OC(C)(C1CCN(CC(F)(F)F)CC1)O2 (single isomer, unassigned) [Compound 44] | 96.1% | 46.8% | 99.6% | 78.2% |  | 30 to 70% | 30 to 70% |  | 30 to 70% | ≤ 30% | +++ (+++: ≥70%) | +++ (+++: ≥70%) |
| CSc1cc(C)[nH]c(=O)c1CNC(=O)c1cc(-c2ccc(N3C[C@@H](C)O[C@@H](C)C3)nc2)c2c(c1C)OC(C)(C1CCN(C(C)C)CC1)O2 (single isomer, unassigned) [Compound 51] | 99.3% | 80.2% | 99.5% | 93% |  | ≤ 30% | 30 to 70% |  | 30 to 70% | ≤ 30% | +++ (+++: ≥70%) | +++ (+++: ≥70%) |
| CSc1cc(C)[nH]c(=O)c1CNC(=O)c1cc(-c2ccc(N3C[C@@H](C)O[C@@H](C)C3)nc2)c2c(c1C)OC(C)(C1CCN(C3CCCCC3)CC1)O2 (single isomer, unassigned) [Compound 53] | 98.5% | 78.3% | 99.6% | 91.6% |  | ≤ 30% | 30 to 70% |  | 30 to 70% | ≤ 30% | +++ (+++: ≥70%) | +++ (+++: ≥70%) |
| CSc1cc(C)[nH]c(=O)c1CNC(=O)c1cc(-c2ccc(N3C[C@@H](C)O[C@@H](C)C3)nc2)c2c(c1C)OC(C)(C1CCN(CCc3ccccc3)CC1)O2 (single isomer, unassigned) [Compound 55] | 58.2% | 31.6% | 93.3% | 52.2% |  | 30 to 70% | 30 to 70% | ≥ 70% | 30 to 70% | ≤ 30% | +++ (+++: ≥70%) |  |
| CSc1cc(C)[nH]c(=O)c1CNC(=O)c1cc(-c2ccc(N3C[C@@H](C)O[C@@H](C)C3)nc2)c2c(c1C)OC(C)(C1CCN(CCCC(F)(F)F)CC1)O2 (single isomer, unassigned) [Compound 57] | 96% | 58.9% | 99.4% | 76.2% |  | 30 to 70% | 30 to 70% |  | 30 to 70% | 30 to 70% | +++ (+++: ≥70%) | +++ (+++: ≥70%) |
| CSc1cc(C)[nH]c(=O)c1CNC(=O)c1cc(-c2ccc(N3C[C@@H](C)O[C@@H](C)C3)nc2)c2c(c1C)OC(C)(C1CCN(C(=O)C(F)(F)F)CC1)O2 (single isomer, unassigned) [Compound 59] | 98.5% | 42.2% | 99.5% | 5.7% |  | 30 to 70% | 30 to 70% | ≥ 70% | 30 to 70% | ≤ 30% | +++ (+++: ≥70%) |  |

— patent EP4740948A1 (Dong Wha Pharm. Co., Ltd., priority 2023, dated 2025)
